Assay results taken from ChEMBL document CHEMBL1155295, “Benzo[c][2,7]naphthyridines as inhibitors of PDK-1” (Bioorg Med Chem Lett, 2009).

Each compound was assayed against T1, 3-phosphoinositide-dependent protein kinase 1 (Homo sapiens, UniProt O15530) (assay: Inhibition of PDPK1 by ELISA assay).
T1 sequence (O15530 whole entry): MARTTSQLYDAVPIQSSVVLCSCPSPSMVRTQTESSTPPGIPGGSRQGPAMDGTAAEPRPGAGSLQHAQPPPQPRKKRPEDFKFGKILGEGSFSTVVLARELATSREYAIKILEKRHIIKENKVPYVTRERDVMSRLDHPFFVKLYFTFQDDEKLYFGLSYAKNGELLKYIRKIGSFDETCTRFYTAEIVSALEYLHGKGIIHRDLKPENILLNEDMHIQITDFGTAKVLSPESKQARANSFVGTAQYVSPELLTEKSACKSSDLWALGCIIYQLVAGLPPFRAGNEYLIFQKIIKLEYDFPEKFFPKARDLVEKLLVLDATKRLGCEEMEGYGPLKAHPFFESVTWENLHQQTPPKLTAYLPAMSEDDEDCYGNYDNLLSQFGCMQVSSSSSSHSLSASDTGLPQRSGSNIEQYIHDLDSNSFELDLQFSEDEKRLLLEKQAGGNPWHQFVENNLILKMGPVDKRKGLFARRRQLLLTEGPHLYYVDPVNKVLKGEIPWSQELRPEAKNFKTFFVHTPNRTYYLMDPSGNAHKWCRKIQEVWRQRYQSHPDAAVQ

| IC50 [nM] | Structure (SMILES) |
| --- | --- |
| 146 | COc1cc2c(cc1OCc1ccccc1)ncc1c(N)nc(-c3cccnc3)cc12 |
| 35 | COc1cc2ncc3c(N)nc(-c4cccnc4)cc3c2cc1OC |
| 26 | COc1cc2ncc3c(N)nc(-c4cncc(N)c4)cc3c2cc1OC |
| > 100 | COc1cc2ncc3c(N)nc(-c4ccccn4)cc3c2cc1OC |
| 30 | COc1cc2ncc3c(N)nc(-c4cncc(Nc5ccccc5F)c4)cc3c2cc1OC |
| > 1000 | COc1cc2ncc3c(N)nc(-c4cncc(Nc5ccccc5OCc5ccccc5)c4)cc3c2cc1OC |

The remaining lines, values behind:

| Structure (SMILES) | IC50 [nM] |
| --- | --- |
| COc1cc2ncc3c(N)nc(-c4cncc(Br)c4)cc3c2cc1OC | 65 |
| COc1cc2ncc3c(N)nc(-c4ccoc4)cc3c2cc1OC | > 1000 |
| COc1cc2ncc3c(N)nc(-c4ccc(N)nc4)cc3c2cc1OC | > 1000 |
| COc1cc2c(cc1OCCCN1CCCCC1)ncc1c(N)nc(-c3cccnc3)cc12 | 144 |
| COc1cc2ncc3c(N)nc(-n4ccnc4)cc3c2cc1OC | 100 |
